This note sets out measurements from patent publication US20170204187A1, “METHODS OF TREATING AND PREVENTING CANCER DRUG RESISTANCE” (Genentech, Inc., priority 2014, published 2017).

“Also recorded” adds a separate entry of the source.

For one assay, the system named is LOX-IMVI cells. The experiment in a line: Secreted factor rescue screen on LOX-IMVI (FIG. 23). The assay is classed as cell-based. From the text:
FIG. 23 A-C.|Vemurafenib resistant and sensitive cell lines can be used to determine and anticipate paths to resistance in patients. LOX-IMVI cells were rescued by FGF1, FGF2, EGF, and HGF in the screen. A, LOX-IMVI VemR cells were re-sensitized to PLX4032 by FGFR inhibition. B, Dual resistant LOX-IMVI VemR/FGFRi (i.e., resistant to vemurafenib and FGFR inhibitor) cells were re-sensitized to PLX4032 by EGFR inhibition. C, Triple resistant LOX-IMVI VemR/FGFRi/Erlotinib cells were re-sensitized to PLX4032 by MET inhibition.

The subject of assay [1] is B-raf mutant melanoma cell lines. The experiment in a line: Secreted factor / FGF rescue screen, melanoma lines (FIG. 1, FIG. 15B). The note with it: for rescue of tumor cells from B-raf and MEK antagonists: melanoma cell line, FIG. 1B. It is filed as cell-based. How it is done: (§1) FIG. 1A-D.|Factors secreted by tumor cells and/or the tumor microenvironment contribute to drug resistance through activation of cell-surface receptors. […] D, Secreted growth factors which promote resistance to PLX4032 reactivate MAPK and PI3K pathways. Activation of MAPK by FGF2, MAPK and AKT by HGF and AKT by NRG1 and SCF are shown in 624 MEL cells in the presence of PLX4032. Treatments were 5 μM PLX4032 for 24 hours and 50 ng·mL FGF2, HGF, NRGB1, or SCF for 10 minutes.
(§2) FIG. 15 A-C.|Screen of 10 melanoma cell lines and 10 breast cancer lines was performed to determine the role of FGF signalling in drug resistance. […] C, Summary of FGF receptors, their subfamily, and their ligands.
(§3) FGF signalling and resistance was studied in 10 HER2+ breast cancer cell lines and in 10 B-raf mutant melanoma cell lines (FIG. 15). 7 of the 10 HER2+ breast cancer cell lines were rescued by FGF2 (FIG. 15A). 8 of the 10 B-raf mutant melanoma cell lines were rescued by FGF2 (FIG. 15B). Subsequent analysis determined that 50-70% of the melanoma lines with the V600E mutation were rescued by FGF2 (n=30).

In another assay the test system is 624 MEL cells. The experiment in a line: Immunoblot of MAPK and PI3K pathway reactivation by secreted growth factors (FIG. 1D). It is filed as cell-based. The note with it: 5 μM PLX4032 for 24 hours; 50 ng·mL factor for 10 minutes. How it is done: as §1
On the technique in general: Immunoblotting shows a protein as a band on a membrane.

For a further assay, the system named is LOX-IMVI VemR cell line. The experiment in a line: LOX-IMVI VemR resensitization to vemurafenib by FGFR antagonists (FIG. 2B). The note with it: FGFR antagonist 1 μM in combination with 5 μM vemurafenib. It is filed as cell-based. As for the experimental part:
FIG. 2A-E.|A cell line (“LOX-IMVI VemR”) was engineered to be resistant to vemurafienib. A, An image of an immunoblot of 11 cell lines probed for FGFR1 expression. B, The LOX-IMVI VemR cell line is not affected by 5 μM vemurafenib (i.e., “PLX”) as shown in the DMSO plot; however, the cell line is affected by 5 μM vemurafenib in combination with an antagonist of FGFR signalling (i.e., BGJ398, PD173074, and AP24534).
The Lox-IMVI VemR cell line was used as the model of acquired resistance in B-raf mutant melanoma. 11 cell lines were tested for FGFR1 expression using a Western blot. Of the cell lines tested, FGFR1 expression was detected in the LOX-IMVI (vemurafenib sensitive) and LOX-IMVI VemR (vemurafenib resistant) lines (FIG. 2A).

The next assay deals with LOX-IMVI VemR cells. The experiment in a line: In vitro combination study vemurafenib + BGJ398, Vem-resistant cell outgrowth (FIG. 3A). It is filed as cell-based.
A further assay concerns SK-MEL-24 cell line. The experiment in a line: In vitro combination study vemurafenib + BGJ398 (FIG. 3A). It is filed as cell-based. The note with it: PLX4032 combined with FGFR antagonist. The source says:
(§4) FIG. 3A-B.|FGFR-inhibition prevents Vem-resistant cell outgrowth. […] B, Expression patterns of select proteins are shown on West Blots in the presence of vemurafenib (PLX4032), an antagonist of FGFR signalling (NV-BGJ398), and/or FGF2.

The test system of a further assay is SK-MEL-3 cell line. The assay is described as above. Particulars: PLX4032 combined with FGFR antagonist. The assay is classed as cell-based.
Text: as §4

Another assay has as its system LOX-IMVI tumors. The assay can be described thus: In vivo tumor volume, parental vemurafenib sensitive tumors. How it is done:
(§5) FIG. 4A-C.|The LOX-IMVI VemR cell line has FGFR-mediated vemurafenib resistance in vivo. A, LOX-IMVI cells (parental cell line) are sensitive to vemurafenib.
(§6) The vemurafenib resistance and recovery of the LOX-IMVI VemR cell line was also studied in vivo. The tumor volume (mm^3) was measured in LOX-IMVI (parental, vemurafenib sensitive) tumors and in LOX-IMVI VemR (vemurafenib resistant) tumors in the presence of vemurafenib, BGJ398, or vemurafenib and BGJ398 ([…]).

The next assay deals with LOX-IMVI VemR tumors. The experiment in a line: In vivo tumor volume, vemurafenib resistant tumors. Particulars: combination treatment of vemurafenib and BGJ398. How it is done: as §5, §6
Another assay concerns HCC1569 cells. The experiment in a line: Innate resistance model, sensitization to lapatinib (FIG. 20A). The assay is classed as cell-based. The note with it: 100 nM BGJ398 with 5 μM lapatinib. How it is done:
(§7) FIG. 20 A-C.|HER2+ breast cancer models of innate resistance. A, FGFR inhibitor (BGJ398) sensitizes HCC1569 cells to lapatinib. B, FGFR inhibitor (BGJ398) sensitizes MDA-MB-453 cells to lapatinib.
(§8) The innate resistant HER2+ breast cancer cell lines were HCC1569 and MDA-MB-453. HC1569 expressed FGFR2 (detected by Western blot) and secreted FGF2 (detected by ELISA). FGFR ECD chimeras from the HCC1569 line were sensitized to lapatinib. Furthermore, HC1569 cells that were treated with FGFR inhibitor(s) sensitized the cells to lapatinib. […] MDA-MB-453 cells that were treated with FGFR inhibitor(s) sensitized the cells to lapatinib.
(§9) HCC1569 and MDA-MB-453 cells were treated with 100 nM afatinib, 100 nM crizotinib, or 100 nM BGJ398 in the presence or absence of 5 μM lapatinib (FIGS. 20A and 20B).

In a further assay the test system is MDA-MB-453 cells. The experiment in a line: Innate resistance model, sensitization to lapatinib (FIG. 20B). The assay is classed as cell-based. Particulars: 100 nM BGJ398 with 5 μM lapatinib. As for the experimental part: as §7, §8, §9
In assay [2] the test system is HER2+ breast cancer models of innate resistance. The experiment in a line: Tumor volume, lapatinib + FGFR inhibitor (FIG. 20C). It is filed as in vivo. Particulars: combination treatment of lapatinib and BGJ398.
Assay [3] relates to HER2+ breast cancer cell lines (AU565, BT-474, HCC1954, SK-BR-3, and UACC-893). The experiment in a line: Block of FGF2 rescue in lapatinib/FGF2 treated cells (FIG. 19A). The assay is classed as cell-based. The note with it: cells treated with lapatinib and FGF2, then FGFR pan inhibitor. How it is done:
FIG. 19 A-D.|FGFR4 mediates FGF2 rescue in HER2+ breast cancer. A, Percent rescue of cells treated with lapatinib and FGF2. B, Immunoblot of cells treated with lapatinib and FGF2. C, TCGA breast cancer samples (n=913) show high […] levels in breast cancer. D, HER2+ breast cancer cells are enriched for high FGFR4.
HER2+ breast cancer cell lines (AU565, BT-474, HCC1954, SK-BR-3, and UACC-893) were treated with lapatinib and FGF2. Thereafter, the cells were either exposed to siRNA targeting FGFR1, FGFR2, FGFR3, or FGFR4 or exposed to the FGFR pan inhibitor BGJ398 (FIG. 19A). […] Immunoblots were also performed to detect IP/pTyr/IB:FGFR4, FGFR4, pERK, ERK, and actin (control) in cells treated with lapatinib in the presence and absence of FGF2 (FIG. 19B).

The subject of assay [4] is HER2+ breast cancer cell lines. The experiment in a line: FGF rescue screen, breast cancer lines (FIG. 15A). The assay is classed as cell-based. Particulars: 10 HER2+ breast cancer cell lines. How it is done: as §2, §3
Assay [5] concerns HER2+ breast cancer cells. The assay can be described thus: Immunoblot of downstream signalling after FGF2 exposure (FIG. 16). It is filed as cell-based. The note with it: FGF2 50 ng/mL for 10 minutes or 24 hours, with or without lapatinib 2 μM. As for the experimental part:
FIG. 16 A-B.|FGF2 reactivates key signalling pathways to promote resistance and stimulates sustained activation of downstream signaling. A, An immunoblot of cells exposed to FGF2 for 10 min compared to cells absent exposure. B, An immunoblot of cells exposed to FGF2 for 24 hrs compared to cells absent FGF2 exposure.
Furthermore, it was determined that FGF2 reactivates key signalling pathways to promote resistance (FIG. 16). This was shown in a cell assay wherein HER2+ breast cancer cells were exposed to FGF2 (50 ng·mL) for 10 minutes in the presence or absence of lapatinib (2 μM) (FIG. 16A). Similarly, an assay was performed wherein HER2+ breast cancer cells were exposed to FGF2 (50 ng/mL) for 24 hours in the presence or absence of lapatinib (2 μM) (FIG. 16B).

The test system of a further assay is B-raf-mutant melanomas. The assay can be described thus: Immunoblot of MAPK reactivation in FGF2-mediated rescue (FIG. 7A). The assay is classed as cell-based. The source says: FIG. 7 A-D.|Reactivation of MEK/ERK downstream of B-raf is a core mechanism of resistance in B-raf-mutant melanomas. A, MAPK signalling is required for FGF2-mediated resistance as shown by immunoblots. […] C, A synthetic lethal chemical screen was utilized to identify signalling pathways mediating resistance to PLX4032 in 12 acquired-resistance melanoma cell lines. […] D, Examples of the synthetic lethal chemical screen shown in FIG. 7C on specific cell lines.

For FGF1: secreted factor, FGFR ligand, the “rescue in the secreted factor screen” value in the assay on LOX-IMVI cells is given as “rescued”.
As to “HGF: secreted growth factor which promotes resistance to PLX4032”, the “rescue of tumor cells from B-raf and MEK antagonists” value in assay [1] is “most broadly and potently”. In addition, the “pathway activated in the presence of PLX4032” value (from here on “pathway activated”) with 624 MEL cells is “MAPK and AKT”. For the same molecule, the “rescue in the secreted factor screen” value in the assay with LOX-IMVI cells was “rescued”.
In the case of “SCF: secreted growth factor which promotes resistance to PLX4032”, the “pathway activated” value in the assay with 624 MEL cells is on record as “AKT”.
With `Cc1ccc(C(=O)Nc2ccc(CN3CCN(C)CC3)c(C(F)(F)F)c2)cc1C#Cc1cnc2cccnn12` [AP24534], the “effect on the cell line / resensitization to vemurafenib” value with LOX-IMVI VemR cell line is recorded as “resensitized to vemurafenib; also recorded: affected”.
`CCN1CCN(c2ccc(Nc3cc(N(C)C(=O)Nc4c(Cl)c(OC)cc(OC)c4Cl)ncn3)cc2)CC1` [BGJ398, 3-(2,6-Dichloro-3,5-dimethoxy-phenyl)-1-{6-[4-(4-ethyl-piperazin-1-yl)-phenylamino]-pyrimidin-4-yl}-1-methyl-urea]: in the assay with LOX-IMVI VemR cell line, the “effect on the cell line / resensitization to vemurafenib” value is on record as “resensitized to vemurafenib; also recorded: affected”. Further, the response to treatment entry is given as “high response” in the assay on LOX-IMVI VemR cells (combination treatment of vemurafenib and BGJ398); “minimal response” with LOX-IMVI VemR cells (single agent alone). Besides, the “response to PLX4032” value with SK-MEL-24 cell line and in the assay with SK-MEL-3 cell line was “augmented response” in each case. Besides, in the assay on LOX-IMVI tumors (co-treatment with BGJ398 and vemurafenib), the “re-emergence of tumors following the end of treatment” value is given as “can be prevented”. In addition, the tumor volume entry in the assay with LOX-IMVI tumors (vemurafenib 25 mg/kg, BID and BGJ398 15 mg/kg, QD) is “tumor volume decreased”; in assay [2] it was “decrease tumor volume; also recorded: Tumor volume decreases”. Besides, the “tumor volume / efficacy” value in the assay on LOX-IMVI VemR tumors was “did show a decrease in tumor volume”; in the assay on LOX-IMVI VemR tumors (listed as NVP-BGJ398), “potent efficacy”. In addition, the sensitization to lapatinib entry with HCC1569 cells and with MDA-MB-453 cells was “rescue the cell lines from drug resistance; also recorded: sensitizes” in each case. Also, in assay [3], the “percent rescue from acquired resistance to lapatinib and FGF2” value is on record as “greatest percent rescue”.
In the case of `CCN(CC)CCCCNc1ncc2cc(-c3cc(OC)cc(OC)c3)c(NC(=O)NC(C)(C)C)nc2n1` [PD173074, N-[2-[[4-(diethylamino)butyl]amino]-6-(3,5-dimethoxyphenyl)pyrido[2,3-d]pyrimidin-7-yl]-N′-(1,1-dimethylethyl)-urea], the “effect on the cell line / resensitization to vemurafenib” value in the assay with LOX-IMVI VemR cell line is reported as “resensitized to vemurafenib; also recorded: affected”.
As to “FGF2: secreted growth factor, FGFR ligand, promotes resistance”, the figures for the “cell lines rescued by FGF2” value in assay [4] and in [1] (10 B-raf mutant melanoma cell lines) were 7 of the 10 and 8 of the 10, respectively. For the same molecule, the “rescue of tumor cells from B-raf and MEK antagonists” value in assay [1] is “most broadly and potently”. For the same molecule, in assay [1] (subsequent analysis, n=30), the “melanoma lines with the V600E mutation rescued by FGF2” value is 50-70%. The “pathway activated” value with 624 MEL cells is recorded as “MAPK”. For the same molecule, the “rescue in the secreted factor screen” value in the assay on LOX-IMVI cells is on record as “rescued”. Besides, the downstream signalling entry in [5] was “sustained activation of downstream signalling”. Besides, in the assay on B-raf-mutant melanomas, the “MAPK signalling in the presence of PLX4032” value was “activates MEK and ERK”.
